Patent US20070043112A1, “Use of non-opiates for the potentation of opiates” (priority 2003, published 2007)

Assay: rat tail flick assay (nociceptive reaction latency)
Type: in vivo
Conditions: ifenprodil IN 1 mg/rat + morphine IP 6 mg/kg, given 30 min before the test, Student's t test P<0.05 vs morphine group
Experimental: In FIG. 1, results are expressed as mean±sem for 6 experiments, which are (from left to right): vehicle, morphine (6 mg/kg), vehicle, ifenprodil (1 mg/rat), vehicle IN+vehicle IP, and ifenprodil IN (1 mg/rat)+morphine IP (6 mg/kg). • vehicle: 90% saline 10% propylene glycol • vehicle and morphine were given intraperitoneally 30 min. before the test • vehicle and ifenprodil were given intranasally 30 min. before the test • n=10 rats per group • student's T test: * indicates a significant difference in comparison to the vehicle group for P<0.05 • student's T test: † indicates a significant difference in comparison to the morphine group for P<0.05

CC(C(O)c1ccc(O)cc1)N1CCC(Cc2ccccc2)CC1 (stereo not shown) [ifenprodil]
potentiation of morphine analgesia (nociceptive reaction latency): potentiates morphine when administered intranasally
